Experiments:
[1] = biological target: T1, Histone-arginine methyltransferase CARM1 (Homo sapiens, UniProt Q86X55); assay: Inhibition of CARM1 assessed as blockade of histone H3 methylation
T1 sequence (Q86X55 whole entry): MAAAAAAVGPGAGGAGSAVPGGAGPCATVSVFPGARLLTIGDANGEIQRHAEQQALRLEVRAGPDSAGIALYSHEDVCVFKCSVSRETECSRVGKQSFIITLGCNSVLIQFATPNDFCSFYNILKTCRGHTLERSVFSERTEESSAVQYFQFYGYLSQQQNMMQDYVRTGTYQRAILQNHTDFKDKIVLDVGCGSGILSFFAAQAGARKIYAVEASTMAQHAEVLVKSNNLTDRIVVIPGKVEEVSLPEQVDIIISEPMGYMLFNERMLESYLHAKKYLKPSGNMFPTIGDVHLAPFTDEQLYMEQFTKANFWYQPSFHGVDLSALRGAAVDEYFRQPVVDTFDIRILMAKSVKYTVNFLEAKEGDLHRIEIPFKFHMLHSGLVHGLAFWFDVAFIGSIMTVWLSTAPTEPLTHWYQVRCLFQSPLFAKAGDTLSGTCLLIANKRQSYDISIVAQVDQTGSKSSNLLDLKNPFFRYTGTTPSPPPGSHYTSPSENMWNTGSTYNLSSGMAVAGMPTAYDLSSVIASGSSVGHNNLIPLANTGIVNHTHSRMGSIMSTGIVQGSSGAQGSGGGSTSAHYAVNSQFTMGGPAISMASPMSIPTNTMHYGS

[2] = Membrane permeability by PAMPA; assay type: ADME; details: read-out: permeability
[3] = Metabolic stability in human microsomes per microgram of protein; assay type: ADME, Microsome
[4] = Toxicity against human hepatocytes; assay type: cell-based, Hepatocyte
[5] = biological target: Protein arginine N-methyltransferase 1 (Homo sapiens, UniProt Q99873); assay: Inhibition of PRMT1 by methylation assay
Cytochrome P450 2C19 = Cytochrome P450 2C19 (Homo sapiens, UniProt P33261); assay: Inhibition of CYP2C19 expressed in human hepatocytes; assay type: ADME, cell-based, Hepatocyte
Cytochrome P450 2C9 = Cytochrome P450 2C9 (Homo sapiens, UniProt P11712); assay: Inhibition of CYP2C9 expressed in human hepatocytes; assay type: ADME, cell-based, Hepatocyte
Cytochrome P450 3A4 = Cytochrome P450 3A4 (Homo sapiens, UniProt P08684); assay: Inhibition of CYP3A4 expressed in human hepatocytes; assay type: ADME, cell-based, Hepatocyte
[6] = biological target: Protein arginine N-methyltransferase 3 (Homo sapiens, UniProt O60678); assay: Inhibition of PRMT3 by methylation assay
[7] = biological target: T2, Nuclear receptor subfamily 1 group I member 2 (Homo sapiens, UniProt O75469); assay: Inhibition of human PXR
T2 sequence (O75469 whole entry): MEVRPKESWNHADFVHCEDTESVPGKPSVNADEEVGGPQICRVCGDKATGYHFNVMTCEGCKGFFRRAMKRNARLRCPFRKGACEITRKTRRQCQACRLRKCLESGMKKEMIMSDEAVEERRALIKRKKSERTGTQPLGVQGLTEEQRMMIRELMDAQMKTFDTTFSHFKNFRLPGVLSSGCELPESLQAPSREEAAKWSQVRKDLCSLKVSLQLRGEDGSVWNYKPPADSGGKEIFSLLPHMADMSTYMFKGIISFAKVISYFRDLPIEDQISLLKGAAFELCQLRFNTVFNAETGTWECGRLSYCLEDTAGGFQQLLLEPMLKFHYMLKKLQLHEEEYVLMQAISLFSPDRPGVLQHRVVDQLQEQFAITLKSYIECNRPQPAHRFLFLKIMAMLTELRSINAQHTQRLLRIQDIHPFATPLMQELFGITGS

Cytochrome P450 2D6 = Cytochrome P450 2D6 (Homo sapiens, UniProt P10635); assay: Inhibition of CYP2D6 expressed in human hepatocytes; assay type: ADME, cell-based, Hepatocyte
Chain of Cytochrome P450 2D6 (P10635 whole entry): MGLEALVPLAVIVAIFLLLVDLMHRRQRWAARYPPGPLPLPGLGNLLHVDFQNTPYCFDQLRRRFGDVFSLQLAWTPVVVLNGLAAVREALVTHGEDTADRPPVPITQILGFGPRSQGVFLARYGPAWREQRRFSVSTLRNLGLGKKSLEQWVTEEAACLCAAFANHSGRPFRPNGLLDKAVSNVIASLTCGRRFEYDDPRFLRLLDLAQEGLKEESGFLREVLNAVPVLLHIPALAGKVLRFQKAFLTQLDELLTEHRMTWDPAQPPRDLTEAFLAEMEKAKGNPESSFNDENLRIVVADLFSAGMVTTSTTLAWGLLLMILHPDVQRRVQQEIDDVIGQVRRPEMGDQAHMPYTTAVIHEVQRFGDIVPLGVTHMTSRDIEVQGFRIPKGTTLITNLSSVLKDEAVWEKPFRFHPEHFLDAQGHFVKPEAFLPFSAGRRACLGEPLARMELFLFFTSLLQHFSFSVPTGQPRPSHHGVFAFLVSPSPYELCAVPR

Chain of Cytochrome P450 2C9 (P11712 whole entry): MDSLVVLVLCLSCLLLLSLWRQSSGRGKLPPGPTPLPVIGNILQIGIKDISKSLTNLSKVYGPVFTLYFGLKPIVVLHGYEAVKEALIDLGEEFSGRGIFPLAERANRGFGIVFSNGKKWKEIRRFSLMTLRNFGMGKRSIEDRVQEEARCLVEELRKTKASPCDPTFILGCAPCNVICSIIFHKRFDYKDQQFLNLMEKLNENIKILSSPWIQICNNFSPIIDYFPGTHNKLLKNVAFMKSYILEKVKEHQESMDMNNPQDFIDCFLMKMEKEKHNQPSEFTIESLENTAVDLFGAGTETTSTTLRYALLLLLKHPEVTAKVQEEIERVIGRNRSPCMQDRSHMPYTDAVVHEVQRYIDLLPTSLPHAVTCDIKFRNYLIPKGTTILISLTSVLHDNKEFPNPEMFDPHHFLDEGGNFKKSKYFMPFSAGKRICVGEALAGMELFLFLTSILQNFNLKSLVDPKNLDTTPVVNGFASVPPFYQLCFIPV
Chain of Protein arginine N-methyltransferase 3 (O60678 whole entry): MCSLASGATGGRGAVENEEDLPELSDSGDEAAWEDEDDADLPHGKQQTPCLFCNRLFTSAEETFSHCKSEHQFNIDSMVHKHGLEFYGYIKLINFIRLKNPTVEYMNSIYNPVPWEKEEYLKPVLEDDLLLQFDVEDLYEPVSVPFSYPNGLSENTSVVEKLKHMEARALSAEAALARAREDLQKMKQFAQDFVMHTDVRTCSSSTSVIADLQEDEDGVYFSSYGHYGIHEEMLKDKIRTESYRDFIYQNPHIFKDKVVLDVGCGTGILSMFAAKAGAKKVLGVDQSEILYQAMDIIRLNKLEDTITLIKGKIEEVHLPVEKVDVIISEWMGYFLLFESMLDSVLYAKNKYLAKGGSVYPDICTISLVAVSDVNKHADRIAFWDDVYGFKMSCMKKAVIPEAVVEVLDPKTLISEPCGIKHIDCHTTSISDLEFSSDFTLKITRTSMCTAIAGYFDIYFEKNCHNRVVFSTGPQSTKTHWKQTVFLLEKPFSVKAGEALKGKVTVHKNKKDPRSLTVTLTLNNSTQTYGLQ
Chain of Protein arginine N-methyltransferase 1 (Q99873 whole entry): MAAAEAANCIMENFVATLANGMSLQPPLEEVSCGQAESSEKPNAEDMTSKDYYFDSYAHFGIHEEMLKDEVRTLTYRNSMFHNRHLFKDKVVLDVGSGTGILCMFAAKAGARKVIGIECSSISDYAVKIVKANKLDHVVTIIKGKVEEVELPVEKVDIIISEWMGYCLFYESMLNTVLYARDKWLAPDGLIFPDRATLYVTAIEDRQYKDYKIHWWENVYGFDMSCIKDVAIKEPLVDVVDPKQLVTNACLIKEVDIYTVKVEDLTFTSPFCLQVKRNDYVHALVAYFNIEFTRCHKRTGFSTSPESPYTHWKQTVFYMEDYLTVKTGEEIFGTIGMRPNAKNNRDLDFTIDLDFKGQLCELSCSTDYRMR
Chain of Cytochrome P450 3A4 (P08684 whole entry): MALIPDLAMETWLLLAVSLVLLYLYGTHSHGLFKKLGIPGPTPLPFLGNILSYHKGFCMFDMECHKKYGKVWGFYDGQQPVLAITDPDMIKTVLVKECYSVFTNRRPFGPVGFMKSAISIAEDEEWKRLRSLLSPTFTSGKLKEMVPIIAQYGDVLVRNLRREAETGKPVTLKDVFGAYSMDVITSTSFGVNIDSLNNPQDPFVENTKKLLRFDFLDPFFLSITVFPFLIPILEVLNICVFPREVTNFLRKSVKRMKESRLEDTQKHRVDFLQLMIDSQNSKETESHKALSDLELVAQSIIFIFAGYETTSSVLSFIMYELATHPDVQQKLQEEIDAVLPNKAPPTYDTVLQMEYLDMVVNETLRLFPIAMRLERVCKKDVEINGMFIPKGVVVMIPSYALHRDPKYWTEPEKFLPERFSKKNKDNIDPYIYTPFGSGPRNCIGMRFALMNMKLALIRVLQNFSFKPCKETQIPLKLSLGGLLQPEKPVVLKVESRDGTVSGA
Chain of Cytochrome P450 2C19 (P33261 whole entry): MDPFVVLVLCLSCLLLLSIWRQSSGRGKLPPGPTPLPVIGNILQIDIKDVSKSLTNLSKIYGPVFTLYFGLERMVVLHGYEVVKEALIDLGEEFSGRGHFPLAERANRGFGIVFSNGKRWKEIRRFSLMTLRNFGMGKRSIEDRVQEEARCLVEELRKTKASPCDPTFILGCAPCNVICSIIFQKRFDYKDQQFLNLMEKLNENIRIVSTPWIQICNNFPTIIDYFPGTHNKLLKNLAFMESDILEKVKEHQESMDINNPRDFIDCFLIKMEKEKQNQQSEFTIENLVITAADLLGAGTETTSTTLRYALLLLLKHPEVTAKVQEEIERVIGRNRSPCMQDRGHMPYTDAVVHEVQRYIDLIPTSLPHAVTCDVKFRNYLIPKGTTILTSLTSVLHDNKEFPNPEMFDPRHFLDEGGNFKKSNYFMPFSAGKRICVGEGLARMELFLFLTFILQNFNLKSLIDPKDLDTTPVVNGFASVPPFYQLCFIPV

C[C@H](N)CNCc1cccc(-n2nc(C(F)(F)F)cc2-c2nnc(-c3ccccc3)o2)c1
IC50 [1]: > 10 µM

C[C@H](N)C(=O)NCc1cccc(-n2nc(C(F)(F)F)cc2C(=O)NCc2ccccc2)c1
Papp [2]: < 1.5 ×10⁻⁶ cm/s

C[C@H](N)C(=O)NCc1cccc(-n2nc(C(F)(F)F)cc2-c2nnc(-c3cccc4ncsc34)o2)c1
Stability [3]: 0.026 nM/min | IC50 [4]: > 100 µM | IC50 [5]: > 25 µM | IC50 (Cytochrome P450 2C19): > 100 µM | IC50 (Cytochrome P450 2C9): > 100 µM | IC50 (Cytochrome P450 3A4): > 100 µM | IC50 [1]: 0.04 µM | IC50 [6]: > 25 µM | EC50 [7]: > 25 µM | Papp [2]: 26.7 ×10⁻⁶ cm/s | IC50 (Cytochrome P450 2D6): > 100 µM

C[C@H](N)C(=O)NCc1cccc(-n2nc(C(F)(F)F)cc2-c2nnc(-c3ccccc3)o2)c1
Papp [2]: 10.6 ×10⁻⁶ cm/s

C[C@H](N)C(=O)N(C)Cc1cccc(-n2nc(C(F)(F)F)cc2-c2nnc(-c3ccccc3)o2)c1
IC50 [1]: > 10 µM

COc1ccccc1Nc1nnc(-c2cc(C(F)(F)F)nn2-c2cccc(CNC(=O)[C@H](C)N)c2)o1
Papp [2]: < 1.5 ×10⁻⁶ cm/s

Reference: ChEMBL document CHEMBL1136918, “Optimization of pyrazole inhibitors of Coactivator Associated Arginine Methyltransferase 1 (CARM1)” (Bioorg Med Chem Lett, 2009)
